Patent publication US5668141A, “Trans-2,6-,3,6-and 4,6-diaza-5,6,6a,7,8,12b-hexahydrobenzo[c]phenanthrene compounds as dopamine agonists” (Abbott Laboratories, priority 1996, dated 1997)
Structures can show the parent of a compound that is named as a salt.

What was measured:
human D1 receptor = molecular target: T1, human D1 receptor (Homo sapiens, UniProt P21728); assay: Adenylate cyclase activity (cAMP stimulation in HEK-D1 cells); assay type: cell-based; settings: read-out: IA (relative intrinsic activity to dopamine)
T1 construct: expressed in transfected cells; host or cells: HEK-D1 cells (HEK cells expressing the human D1 clone)
Protocol: Adenylate cyclase activity: Human D1 receptor.
The interaction of dopamine or a dopamine D-1 receptor agonist with the D-1 receptor causes a dose-dependent increase in the adenylate cyclase-catalyzed conversion of adenosine triphosphate (ATP) to cyclic adenosine monophosphate (cAMP). The functional activity of the compounds of the invention was determined by assaying their ability to either stimulate the enzyme adenylate cyclase to produce cAMP (agonist activity). Assays were conducted in 24-well or 48-well tissue culture plates. The assay buffer consisted of DPBS containing CaCl2 and MgCl2, 0.1% glucose, 0.5 mM IBMX, 0.004% ascorbic acid and 10 μM propranolol to inhibit potential cross activation of the endogenous β-receptor. Culture medium was removed, and HEK-D1 cell was washed once with assay buffer, and 400 μl fresh assay buffer was added for 10 min. Next, 100 μl of dopamine or dopamine agonist, dissolved in assay buffer, was added to the cell for an additional 15 min, and incubations were terminated with 500 μL 0.2N HCl. cAMP contents were determined by RIA using the automated Attoflo™ system (Rockville, Md.).
The hD1c ED50 level is a measure of the potency, showing the concentration (nM) at which a 50% response is obtained; a lower number indicates a higher potency. High intrinsic activity (IA) indicates the activity of the compound as a dopamine agonist.

[1] = tested on: striatal dopamine receptors; assay: Rotation behavior, rat rotational model (6-hydroxydopamine unilateral lesion); assay type: in vivo; settings: sc, 6-hydroxydopamine-lesioned rats
Protocol: The behavioral assay used was based on the rat rotational model. Striatal dopamine was depleted by the intracranial injection of 6-hydroxydopamine, a neurotoxin which specifically destroys catecholaminergic neurons. […] This unilateral lesioning of dopamine-containing neurons causes the post-synaptic dopamine receptors to become supersensitive to dopaminergic stimulation in behavioral assays. […] Agonist activity was measured by the ability of the test compound to induce rotation.
A lower number indicates a higher potency.

dopamine receptor = settings: cited from earlier work
Parkinson's disease = settings: alone, some early Parkinson's disease patients; cited from earlier work
schizophrenia = settings: cited from earlier work; for antipsychotic effect: low doses
[2] = tested on: neural feeding mechanisms; settings: rats; cited from earlier work
acute renal failure = settings: in combination with diuretics, patients; cited from earlier work

T1 sequence (P21728 whole entry): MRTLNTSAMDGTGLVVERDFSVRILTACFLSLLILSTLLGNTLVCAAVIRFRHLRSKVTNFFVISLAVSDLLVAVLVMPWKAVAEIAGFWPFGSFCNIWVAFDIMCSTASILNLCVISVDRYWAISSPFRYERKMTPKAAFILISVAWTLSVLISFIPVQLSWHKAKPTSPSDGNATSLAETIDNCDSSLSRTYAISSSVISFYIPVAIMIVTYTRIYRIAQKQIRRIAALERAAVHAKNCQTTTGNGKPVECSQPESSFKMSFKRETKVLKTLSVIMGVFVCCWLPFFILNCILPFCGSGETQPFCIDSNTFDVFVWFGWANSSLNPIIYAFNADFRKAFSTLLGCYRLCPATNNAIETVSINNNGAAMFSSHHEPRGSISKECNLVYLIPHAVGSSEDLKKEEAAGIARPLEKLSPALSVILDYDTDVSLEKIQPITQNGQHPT

Row | Compound | Emax (human D1 receptor) [%] | other results
1 | Oc1cc2c(cc1O)[C@@H]1c3ccncc3CN[C@H]1CC2 (relative stereo) [Example 13, trans-3,6-diaza-5,6,6a,7,8,12b-hexahydrobenzo[c]phenanthrene 10,11-diol dihydrobromide] | 131 | –
2 | Oc1cc2c(cc1O)[C@@H]1c3cncc(F)c3CN[C@H]1CC2 (relative stereo) [Example 12, trans-2,6-diaza-4-fluoro-5,6,6a,7,8,12b-hexahydrobenzo[c]phenanthrene 10,11-diol dihydrobromide] | 126 | –
3 | Cc1cc2c(nc1C)CN[C@H]1CCc3cc(O)c(O)cc3[C@H]21 (relative stereo) [Example 9, trans-4,6 diaza-5,6,6a,7,8,12b-hexahdro-2,3-dimethylbenzo[c]phenanthrene 10,11-diol dihydrobromide] | 134 | –
4 | Cc1ccc2c(n1)CN[C@H]1CCc3cc(O)c(O)cc3[C@H]21 (relative stereo) [Example 2, trans-4,6-diaza-5,6,6a,7,8,12b-hexahydro-3-methylbenzo[c]phenanthrene 10,11-diol dihydrobromide] | 121 | –
5 | Cc1cnc2c(c1)[C@H]1c3cc(O)c(O)cc3CC[C@@H]1NC2 (relative stereo) [Example 7, trans-4,6-diaza-5,6,6a,7,8,12b-hexahydro-2-methylbenzo[c]phenanthrene 10,11-diol dihydrobromide] | 156 | –
6 | Oc1cc2c(cc1O)[C@@H]1c3ccc(F)nc3CN[C@H]1CC2 (relative stereo) [Example 5, trans-4,6-diaza-3-fluoro-5,6,6a,7,8,12 b-hexahydrobenzo[c]phenanthrene 10,11-diol dihydrobromide] | 141 | Rotation behavior EC50 [1]: 0.82 µmol/kg
7 | Oc1cc2c(cc1O)[C@H]1c3ccccc3CN[C@@H]1CC2 (racemic) [dihydrexidine] | – | dopamine agonist activity (dopamine receptor): active as a dopamine agonist
8 | Cc1cncc2c1CN[C@H]1CCc3cc(O)c(O)cc3[C@H]21 (relative stereo) [Example 14, trans-2,6-diaza-4-methyl-5,6,6a,7,8,12b-hexahydrobenzo[c]phenanthrene 10,11-diol dihydrobromide] | 75 | –
9 | Oc1cc2c(cc1O)[C@@H]1c3cnccc3CN[C@H]1CC2 (relative stereo) [Example 11, trans-2,6-diaza-5,6,6a,7,8,12b-hexahydrobenzo[c]phenanthrene 10,11-diol dihydrobromide] | 81 | –
10 | Oc1cc2c(cc1O)[C@@H]1c3cc4c(nc3CN[C@H]1CC2)CCCC4 (relative stereo) [Example 10, trans-4,6-diaza-5,6,6a,7,8,12b-hexahydro-2,3-cyclohexenobenzo[c]phenanthrene 10,11-diol dihydrobromide] | 136 | –
11 | CC(C)C[C@H]1C(=O)N2CCC[C@H]2[C@]2(O)O[C@](NC(=O)[C@@H]3C=C4c5cccc6[nH]c(Br)c(c56)C[C@H]4N(C)C3)(C(C)C)C(=O)N12 [Bromocriptine] | – | effect on Parkinson's disease symptoms (Parkinson's disease): relieve Parkinson's disease symptoms in some early Parkinson's disease patients; antipsychotic effect (schizophrenia): produce antipsychotic effects
12 | COc1ccc2c(n1)CN[C@H]1CCc3cc(O)c(O)cc3[C@H]21 (relative stereo) [Example 4, trans-4,6-diaza-5,6,6a,7,8,12b-hexahydro-3-methoxybenzo[c]phenanthrene 10,11-diol dihydrobromide] | 114 | –
13 | CN1CCc2cccc3c2[C@H]1Cc1ccc(O)c(O)c1-3 [apomorphine] | – | antipsychotic effect (schizophrenia): produce antipsychotic effects
14 | Oc1cc2c(cc1O)[C@@H]1c3cccnc3CN[C@H]1CC2 (relative stereo) [Example 1, trans-4,6-diaza-5,6,6a,7,8,12b-hexahydrobenzo[c]phenanthrene 10,11-diol dihydrobromide] | 125 | –
15 | CCCc1ccc2c(n1)CN[C@H]1CCc3cc(O)c(O)cc3[C@H]21 (relative stereo) [Example 3, trans-4,6-diaza-5,6,6a,7,8,12b-hexahydro-3-propylbenzo[c]phenanthrene 10,11-diol dihydrobromide] | 116 | Rotation behavior EC50 [1]: 0.14 µmol/kg
16 | Oc1cc2c(cc1O)C(c1ccccc1)CNCC2 (stereo not shown) [SKF 38393] | – | effect on side-effects of haloperidol (schizophrenia; in conjunction with haloperidol): ameliorate the undesired side-effects of the haloperidol; effect on food intake [2]: decrease food intake by rats
17 | CCCCc1cnc2c(c1)[C@H]1c3cc(O)c(O)cc3CC[C@@H]1NC2 (relative stereo) [Example 8, trans-4,6-diaza-5,6,6a,7,8,12b-hexahydro-2-butylbenzo[c]phenanthrene 10,11-diol dihydrobromide] | 118 | –
18 | NCCc1ccc(O)c(O)c1 [dopamine] | – | effect on acute renal failure (acute renal failure): reverse radio-contrast media-induced acute renal failure
